Patent publication US20240390340A1 (INCYTE CORPORATION, priority 2023, published 2024)

Key:
KRAS G12D = KRAS G12D (Homo sapiens, UniProt P01116, G12D); experiment: GDP-GTP exchange assay (bodipy-GDP/GppNHp, SOS1), KRAS G12D; assay type: biochemical; conditions: bodipy-loaded KRAS G12D 2.5 nM, 4 h pre-incubation; value for the most potent isomer quoted for certain compounds; read-out: G12D (KRAS G12D exchange assay IC50)
KRAS G12V = KRAS G12V (Homo sapiens, UniProt P01116, G12V); experiment: GDP-GTP exchange assay (bodipy-GDP/GppNHp, SOS1), KRAS G12V; assay type: biochemical; conditions: KRAS G12V mutant; value for the most potent isomer quoted for certain compounds; read-out: G12V (KRAS G12V exchange assay IC50)
Sequence of KRAS G12V (P01116 1-188 isoform P01116-2 G12V): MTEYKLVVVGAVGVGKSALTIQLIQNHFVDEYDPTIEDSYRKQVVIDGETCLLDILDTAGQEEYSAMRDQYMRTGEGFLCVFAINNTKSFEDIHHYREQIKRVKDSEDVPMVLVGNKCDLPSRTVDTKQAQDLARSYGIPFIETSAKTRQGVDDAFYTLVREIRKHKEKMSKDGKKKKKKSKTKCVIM

Sequence of KRAS G12D (P01116 1-188 isoform P01116-2 G12D): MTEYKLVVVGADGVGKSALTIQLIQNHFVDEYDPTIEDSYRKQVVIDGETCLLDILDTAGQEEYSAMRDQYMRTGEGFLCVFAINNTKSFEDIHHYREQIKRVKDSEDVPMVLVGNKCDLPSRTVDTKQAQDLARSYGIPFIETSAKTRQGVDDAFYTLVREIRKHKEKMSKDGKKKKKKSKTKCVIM

SMILES | IC50 (KRAS G12D) | IC50 (KRAS G12V)
Cc1nc2c(F)c(-c3cccc(Cl)c3Cl)c(CCC#N)cc2c2c1cc([C@H]1C[C@H](n3cc(C4(C)CC4)nn3)CN1C(=O)C1CC1)n2[C@H]1[C@H]2CN[C@@H]1C2 [Example 224] | ≤ 100 nM | ≤ 100 nM
Cc1nc(C)n([C@H]2C[C@H](c3cc4c(C)nc5c(F)c(-c6cccc(Cl)c6Cl)c(CCC#N)cc5c4n3[C@H]3[C@H]4CN[C@@H]3C4)N(C(=O)C3CC3)C2)n1 [Example 350] | ≤ 100 nM | ≤ 100 nM
Cc1nc2c(F)c(-c3cccc(Cl)c3Cl)c(CCC#N)cc2c2c1cc([C@H]1C[C@H](OCc3ccccn3)[C@@H](C)N1C(=O)C1CC1)n2[C@H]1[C@H]2CN[C@@H]1C2 [Example 243] | ≤ 100 nM | ≤ 100 nM
Cc1cc(CO[C@H]2C[C@H](c3cc4c(C)nc5c(F)c(-c6cccc(Cl)c6Cl)c(CCC#N)cc5c4n3[C@H]3[C@H]4CN[C@@H]3C4)N(C(=O)C3CC3)[C@H]2C)ns1 [Example 212] | ≤ 100 nM | ≤ 100 nM
Cc1nc2c(F)c(-c3cccc(Cl)c3Cl)c(CCC#N)cc2c2c1cc([C@H]1C[C@H](OC(C)c3ncco3)CN1C(=O)C1CC1)n2[C@H]1[C@H]2CN[C@@H]1C2 (stereo partly shown) [Example 228] | ≤ 100 nM | ≤ 100 nM
Cc1nc2c(F)c(-c3cccc(Cl)c3Cl)c(CCC#N)cc2c2c1cc([C@H]1C[C@H](Oc3ccn(C(F)F)n3)CN1C(=O)C1CC1)n2[C@H]1[C@H]2CN[C@@H]1C2 [Example 340] | ≤ 100 nM | ≤ 100 nM
Cc1nc2c(F)c(-c3cccc(Cl)c3Cl)c(CCC#N)cc2c2c1cc([C@H]1C[C@H](n3ncnn3)CN1C(=O)C1CC1)n2[C@H]1[C@H]2CN[C@@H]1C2 [Example 396] | ≤ 100 nM | ≤ 100 nM
Cc1cnn([C@H]2C[C@H](c3cc4c(C)nc5c(F)c(-c6cccc(Cl)c6Cl)c(CCC#N)cc5c4n3[C@H]3[C@H]4CN[C@@H]3C4)N(C(=O)C3CC3)C2)n1 [Example 344] | ≤ 100 nM | ≤ 100 nM
Cc1nc2c(F)c(-c3cccc(Cl)c3Cl)c(CCC#N)cc2c2c1cc([C@H]1C[C@H](Oc3ccccc3F)CN1C(=O)C1CC1)n2[C@H]1[C@H]2CN[C@@H]1C2 [Example 119] | ≤ 100 nM | ≤ 100 nM
Cc1nc2c(F)c(-c3cccc(Cl)c3Cl)c(CCC#N)cc2c2c1cc([C@H]1C[C@H](OCC3CCCC3)CN1C(=O)C1CC1)n2[C@H]1[C@H]2CN[C@@H]1C2 [Example 153] | ≤ 100 nM | ≤ 100 nM
Cc1nc2c(F)c(-c3cccc(Cl)c3Cl)c(CCC#N)cc2c2c1cc([C@H]1C[C@H](OC(=O)c3ccccc3)CN1C(=O)C1CC1)n2[C@H]1[C@H]2CN[C@@H]1C2 [Example 87] | ≤ 100 nM | ≤ 100 nM
Cc1ccnc(C)c1CO[C@H]1C[C@H](c2cc3c(C)nc4c(F)c(-c5cccc(Cl)c5Cl)c(CCC#N)cc4c3n2[C@H]2[C@H]3CN[C@@H]2C3)N(C(=O)C2CC2)C1 [Example 125] | ≤ 100 nM | ≤ 100 nM
Cc1nc2c(F)c(-c3cccc(Cl)c3Cl)c(CCC#N)cc2c2c1cc([C@H]1C[C@H](Oc3cncnc3)CN1C(=O)C1CC1)n2[C@H]1[C@H]2CN[C@@H]1C2 [Example 136] | ≤ 100 nM | ≤ 100 nM
Cc1nc2c(F)c(-c3cccc(Cl)c3Cl)c(CCC#N)cc2c2c1cc([C@H]1C[C@H](OCc3cccc(S(C)(=O)=O)c3)CN1C(=O)C1CC1)n2[C@H]1[C@H]2CN[C@@H]1C2 [Example 164] | ≤ 100 nM | ≤ 100 nM
Cc1nc2c(F)c(-c3cccc(Cl)c3Cl)c(CCC#N)cc2c2c1cc([C@H]1C[C@H](OCc3nsc4ccccc34)CN1C(=O)C1CC1)n2[C@H]1[C@H]2CN[C@@H]1C2 [Example 255] | ≤ 100 nM | ≤ 100 nM
COc1ncccc1O[C@H]1C[C@H](c2cc3c(C(C)O)nc4c(F)c(-c5cccc(Cl)c5Cl)c(CCC#N)cc4c3n2[C@H]2[C@H]3CN[C@@H]2C3)N(C(=O)C2CC2)C1 (stereo partly shown) [Example 221] | ≤ 100 nM | ≤ 100 nM
CO[C@H]1CC[C@@H](O[C@H]2C[C@H](c3cc4c(C)nc5c(F)c(-c6cccc(Cl)c6Cl)c(CCC#N)cc5c4n3[C@H]3[C@H]4CN[C@@H]3C4)N(C(=O)C3CC3)C2)C1 [Example 439] | ≤ 100 nM | ≤ 100 nM
Cc1nc2c(F)c(-c3cccc(Cl)c3Cl)c(CCC#N)cc2c2c1cc([C@H]1C[C@H](OC3CCC(O)CC3)CN1C(=O)C1CC1)n2[C@H]1[C@H]2CN[C@@H]1C2 (stereo partly shown) [Example 336] | ≤ 100 nM | ≤ 100 nM
Cc1nc2c(F)c(-c3cccc(Cl)c3Cl)c(CCC#N)cc2c2c1cc([C@H]1C[C@H](O[C@H](C)c3ccccn3)[C@@H](C)N1C(=O)C1CC1)n2[C@H]1[C@H]2CN[C@@H]1C2 [Example 244] | ≤ 100 nM | ≤ 100 nM

Continued, values first:

IC50 (KRAS G12D) | IC50 (KRAS G12V) | SMILES
≤ 100 nM | ≤ 100 nM | Cc1nc2c(F)c(-c3cccc(Cl)c3Cl)c(CCC#N)cc2c2c1cc([C@H]1C[C@H](n3ncc(C#N)n3)CN1C(=O)C1CC1)n2[C@H]1[C@H]2CN[C@@H]1C2 [Example 346]
≤ 100 nM | ≤ 100 nM | Cc1nc2c(F)c(-c3cccc(Cl)c3Cl)c(CCC#N)cc2c2c1cc([C@H]1C[C@H](n3cc(C(C)N4CCOC4=O)nn3)CN1C(=O)C1CC1)n2[C@H]1[C@H]2CN[C@@H]1C2 (stereo partly shown) [Example 325]
≤ 100 nM | ≤ 100 nM | Cc1nc2c(F)c(-c3cccc(Cl)c3Cl)c(CCC#N)cc2c2c1cc([C@H]1C[C@H](n3cc(C4CNC(=O)C4)nn3)CN1C(=O)C1CC1)n2[C@H]1[C@H]2CN[C@@H]1C2 (stereo partly shown) [Example 273]
≤ 100 nM | ≤ 100 nM | Cc1nc2c(F)c(-c3cccc(Cl)c3Cl)c(CCC#N)cc2c2c1cc([C@H]1C[C@H](OC(C)c3ccccc3)CN1C(=O)C1CC1)n2[C@H]1[C@H]2CN[C@@H]1C2 (stereo partly shown) [Example 93]
≤ 100 nM | ≤ 100 nM | Cc1csnc1C(C)O[C@H]1C[C@H](c2cc3c(C(C)O)nc4c(F)c(-c5cccc(Cl)c5Cl)c(CCC#N)cc4c3n2[C@H]2[C@H]3CN[C@@H]2C3)N(C(=O)C2CC2)C1 (stereo partly shown) [Example 334]
≤ 100 nM | ≤ 100 nM | Cc1nc2c(F)c(-c3cccc(Cl)c3Cl)c(CCC#N)cc2c2c1cc([C@H]1C[C@H](OCc3cncn3C)CN1C(=O)C1CC1)n2[C@H]1[C@H]2CN[C@@H]1C2 [Example 108]
≤ 100 nM | ≤ 100 nM | Cc1nc2c(F)c(-c3cccc(Cl)c3Cl)c(CCC#N)cc2c2c1cc([C@H]1C[C@H](OCC3(C#N)CCC3)CN1C(=O)C1CC1)n2[C@H]1[C@H]2CN[C@@H]1C2 [Example 339]
≤ 100 nM | ≤ 100 nM | Cc1nc2c(F)c(-c3cccc(Cl)c3Cl)c(CCC#N)cc2c2c1cc([C@H]1C[C@H](Oc3ccccc3OC(F)F)CN1C(=O)C1CC1)n2[C@H]1[C@H]2CN[C@@H]1C2 [Example 248]
≤ 100 nM | ≤ 100 nM | Cc1nc2c(F)c(-c3cccc(Cl)c3Cl)c(CCC#N)cc2c2c1cc([C@H]1C[C@H](n3nnnc3C)CN1C(=O)C1CC1)n2[C@H]1[C@H]2CN[C@@H]1C2 [Example 397]
≤ 100 nM | ≤ 100 nM | CCc1cnn([C@H]2C[C@H](c3cc4c(C)nc5c(F)c(-c6cccc(Cl)c6Cl)c(CCC#N)cc5c4n3[C@H]3[C@H]4CN[C@@H]3C4)N(C(=O)C3CC3)C2)c1 [Example 280]
≤ 100 nM | ≤ 100 nM | Cc1nc2c(F)c(-c3cccc(Cl)c3Cl)c(CCC#N)cc2c2c1cc([C@H]1C[C@H](Oc3cnn(C(C)C)c3)CN1C(=O)C1CC1)n2[C@H]1[C@H]2CN[C@@H]1C2 [Example 442]
≤ 100 nM | ≤ 100 nM | Cc1cnn([C@H]2C[C@H](c3cc4c(C)nc5c(F)c(-c6cccc(Cl)c6Cl)c(CCC#N)cc5c4n3[C@H]3[C@H]4CN[C@@H]3C4)N(C(=O)C3CC3)C2)c1 [Example 279]
≤ 100 nM | ≤ 100 nM | [2H]C([2H])(O[C@H]1C[C@H](c2cc3c(C)nc4c(F)c(-c5cccc(Cl)c5Cl)c(CCC#N)cc4c3n2[C@H]2[C@H]3CN[C@@H]2C3)N(C(=O)C2CC2)C1)c1nccs1 [Example 362]
≤ 100 nM | ≤ 100 nM | COCCn1cc(O[C@H]2C[C@H](c3cc4c(C)nc5c(F)c(-c6cccc(Cl)c6Cl)c(CCC#N)cc5c4n3[C@H]3[C@H]4CN[C@@H]3C4)N(C(=O)C3CC3)C2)cn1 [Example 441]
≤ 100 nM | ≤ 100 nM | Cc1nc2c(F)c(-c3cccc(Cl)c3Cl)c(CCC#N)cc2c2c1cc([C@H]1C[C@H](Oc3cccc(F)c3)CN1C(=O)C1CC1)n2[C@H]1[C@H]2CN[C@@H]1C2 [Example 122]
≤ 100 nM | ≤ 100 nM | Cc1nc2c(F)c(-c3cccc(Cl)c3Cl)c(CCC#N)cc2c2c1cc([C@H]1C[C@H](OCC3(C)CC(F)(F)C3)CN1C(=O)C1CC1)n2[C@H]1[C@H]2CN[C@@H]1C2 [Example 412]
≤ 100 nM | ≤ 100 nM | Cc1nc2c(F)c(-c3cccc(Cl)c3Cl)c(CCC#N)cc2c2c1cc([C@H]1C[C@H](n3cc(C#N)nn3)CN1C(=O)C1CC1)n2[C@H]1[C@H]2CN[C@@H]1C2 [Example 345]
≤ 100 nM | ≤ 100 nM | Cc1nc2c(F)c(-c3cccc(Cl)c3Cl)c(CCC#N)cc2c2c1cc([C@H]1C[C@H](OCC3CCCCC3)CN1C(=O)C1CC1)n2[C@H]1[C@H]2CN[C@@H]1C2 [Example 86]
≤ 100 nM | ≤ 100 nM | Cc1nc2c(F)c(-c3cccc(Cl)c3Cl)c(CCC#N)cc2c2c1cc([C@H]1C[C@H](OCc3ccncc3)CN1C(=O)C1CC1)n2[C@H]1[C@H]2CN[C@@H]1C2 [Example 96]
≤ 100 nM | ≤ 100 nM | Cc1nc2c(F)c(-c3cccc(Cl)c3Cl)c(CCC#N)cc2c2c1cc([C@H]1C[C@H](OCc3ccc(F)cc3)CN1C(=O)C1CC1)n2[C@H]1[C@H]2CN[C@@H]1C2 [Example 251]
≤ 100 nM | ≤ 100 nM | Cc1csc(CO[C@H]2C[C@H](c3cc4c(C)nc5c(F)c(-c6cccc(Cl)c6Cl)c(CCC#N)cc5c4n3[C@H]3[C@H]4CN[C@@H]3C4)N(C(=O)C3CC3)C2)n1 [Example 359]
≤ 100 nM | ≤ 100 nM | Cc1nc2c(F)c(-c3cccc(Cl)c3Cl)c(CCC#N)cc2c2c1cc([C@H]1C[C@H](Oc3cn(C)nc3C(F)(F)F)CN1C(=O)C1CC1)n2[C@H]1[C@H]2CN[C@@H]1C2 [Example 376]
